# Laboratory results: US10577329B2, “Fused-bicyclic aryl quinolinone derivatives as mutant-isocitrate dehydrogenase inhibitors” (FORMA Therapeutics, Inc., priority 2015, dated 2020)
# Read-outs that look alike come from different tables or passages of the source.
# Tests used:
# [1] = test system: HCT116 isogenic IDH1-R132C mutant cells; test: Cellular 2-HG assay using HCT116 mutant IDH1-R132C cells; assay type: cell-based; conditions: Homo sapiens, read-out: HCT116 IDH1 R132C IC50
# Description: (§1) HCT116 isogenic IDH1-R132H and IDH1-R132C mutant cells were cultured in growth media (McCoy's 5A, 10% fetal bovine serum, 1× antibiotic-antimycotic solution and 0.3 mg/mL G418) in 5% CO2 in an incubator at 37° C. To prepare the assay, cells were trypsinized and resuspended in assay media (McCoy's 5A with no L-glutamine, 10% fetal bovine serum, 1× antibiotic-antimycotic solution and 0.3 mg/mL G418). An aliquot of 10,000 cells/100 μL was transferred to each well of a clear 96-well tissue culture plate. The cells were incubated in 5% CO2 at 37° C. in an incubator overnight to allow for proper cell attachment. An aliquot of 50 μL of compound containing assay media were then added to each well and the assay plate was kept in 5% CO2 at 37° C. in an incubator for 24 hours. The media was then removed from each well and 150 μL of a methanol/water mixture (80/20 v/v) was added to each well. The plates were kept at −80° C. freezer overnight to allow for complete cell lysis. An aliquot of 125 μL of extracted supernatant was analyzed by RapidFire high-throughout-mass spectrometry (Agilent) to determine the cellular 2-HG level. The IC50 of a given compound was calculated by fitting the dose response curve of cellular 2-HG inhibition at a given concentration with the four parameter logistic equation
# [2] = test system: HCT116 isogenic IDH1-R132H mutant cells; test: Cellular 2-HG assay using HCT116 mutant IDH1-R132H cells; assay type: cell-based; conditions: Homo sapiens, read-out: HCT116 IDH1 R132H IC50
# Description: as §1
# [3] = target: IDH1-R132C recombinant protein (Homo sapiens, UniProt O75874, R132C); test: IDH1-R132C enzymatic assay (NADPH consumption, diaphorase/resazurin readout); assay type: biochemical; conditions: 10 nM IDH1-R132C, inhibition of NADPH consumption; read-out: Enzyme IDH1 R132C IC50
# Description: (§2) Example 34—IDH1-R132H and IDH1-R132C Enzymatic Assay
# (§3) Assays were performed in a 384-well black plate. An aliquot of 250 nL of compound was incubated with 10 μL of 30 nM IDH1-R132H or 10 nM IDH1-R132C recombinant protein in assay buffer (50 mM Tris pH=7.5, 150 mM NaCl, 5 mM MgCl2, 0.1% (w/v) Bovine Serum Albumin, and 0.01% Triton X-100) in each well at 25° C. for 15 minutes. After the plate was centrifuged briefly, an aliquot of 10 μL of 2 mM α-ketoglutarate and 20 μM NADPH solution prepared in assay buffer was then added to each well and the reaction was maintained at 25° C. for 45 minutes. An aliquot of 10 μL of diaphorase solution (0.15 U/mL diaphorase and 30 μM Resazurin in assay buffer) was added to each well. The plate was maintained at 25° C. for 15 minutes and then read on a plate reader with excitation and emission wavelengths at 535 nm and 590 nm, respectively. The IC50 of a given compound was calculated by fitting the dose response curve of inhibition of NADPH consumption at a given concentration with the four parameter logistic equation.
# [4] = target: IDH1-R132H recombinant protein (Homo sapiens, UniProt O75874, R132H); test: IDH1-R132H enzymatic assay (NADPH consumption, diaphorase/resazurin readout); assay type: biochemical; conditions: 30 nM IDH1-R132H, inhibition of NADPH consumption; read-out: Enzyme IDH1 R132H IC50
# Description: as §2, §3
# [5] = HCT-116, cellular 2-HG inhibition, 24 hours, RapidFire mass spectrometry
# Sequence of IDH1-R132H recombinant protein (O75874 whole entry R132H): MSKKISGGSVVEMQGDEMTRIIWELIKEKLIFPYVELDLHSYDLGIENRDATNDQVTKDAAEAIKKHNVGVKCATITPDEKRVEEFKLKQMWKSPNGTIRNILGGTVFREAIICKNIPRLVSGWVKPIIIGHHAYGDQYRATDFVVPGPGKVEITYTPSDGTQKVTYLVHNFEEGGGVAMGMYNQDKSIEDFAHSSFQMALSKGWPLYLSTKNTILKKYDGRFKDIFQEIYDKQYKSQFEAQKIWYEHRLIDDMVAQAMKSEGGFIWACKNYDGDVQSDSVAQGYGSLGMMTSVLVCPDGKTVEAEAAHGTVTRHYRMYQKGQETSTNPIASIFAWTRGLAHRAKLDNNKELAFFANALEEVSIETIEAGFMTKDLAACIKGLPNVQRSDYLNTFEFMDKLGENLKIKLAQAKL
# Sequence of IDH1-R132C recombinant protein (O75874 whole entry R132C): as the sequence (O75874 whole entry R132H) above, with H132C counted along it
"IC50 [1, 5]","IC50 [2, 5]",Compound,"IC50 ([1]; HCT-116, 24 h)","IC50 ([2]; HCT-116, 24 h)",IC50 [3],IC50 [4]
,,"COc1cc2[nH]c(=O)c(C(C)Nc3ncc4c(n3)N(C)C(=O)OC4)cc2cc1Cl (racemic) [Compound I-50, 6-chloro-7-methoxy-3-[1-({1-methyl-2-oxo-1H,2H,4H-pyrimido[4,5-d][1,3]oxazin-7-yl}amino)ethyl]-1,2-dihydroquinolin-2-one]",< 100 nM,< 100 nM,< 100 nM,< 100 nM
,,"C[C@H](Nc1ncc2oc(=O)[nH]c2n1)c1cc2cc(Cl)ccc2[nH]c1=O [Compound I-56, 6-chloro-3-[(1S)-1-({2-oxo-2H,3H-[1,3]oxazolo[4,5-d]pyrimidin-5-yl}amino)ethyl]-1,2-dihydroquinolin-2-one]",> 10000 nM,1000 to 10000 nM,,
,,"C[C@H](Nc1ncc2cn[nH]c2n1)c1cc2cc(Cl)ccc2[nH]c1=O [Compound I-45, 6-chloro-3-[(1S)-1-({1H-pyrazolo[3,4-d]pyrimidin-6-yl}amino)ethyl]-1,2-dihydroquinolin-2-one]",100 to 1000 nM,100 to 1000 nM,,
1000 to 10000 nM,100 to 1000 nM,"CC(C)Cn1c(=O)oc2cnc(N[C@@H](C)c3cc4cc(Cl)ccc4[nH]c3=O)nc21 [Compound I-55, 6-chloro-3-[(1S)-1-{[3-(2-methylpropyl)-2-oxo-2H,3H-[1,3]oxazolo[4,5-d]pyrimidin-5-yl]amino}ethyl]-1,2-dihydroquinolin-2-one]",,,,
,,"C[C@H](Nc1ncc2[nH]c(=O)n(C)c2n1)c1cc2cc(Cl)ccc2[nH]c1=O [Compound I-58, 6-chloro-3-[(1S)-1-[(9-methyl-8-oxo-8,9-dihydro-7H-purin-2-yl)amino]ethyl]-1,2-dihydroquinolin-2-one]",1000 to 10000 nM,100 to 1000 nM,,
,,"C[C@H](Nc1ncc2oc(=O)n(C)c2n1)c1cc2cc(Cl)ccc2[nH]c1=O [Compound I-57, 6-chloro-3-[(1S)-1-({3-methyl-2-oxo-2H,3H-[1,3]oxazolo[4,5-d]pyrimidin-5-yl}amino)ethyl]-1,2-dihydroquinolin-2-one]",100 to 1000 nM,100 to 1000 nM,,
100 to 1000 nM,100 to 1000 nM,"C[C@H](Nc1ncc2c(n1)N(C)C(=O)C2)c1cc2cc(Cl)ccc2[nH]c1=O [Compound I-61, 6-chloro-3-[(1S)-1-({7-methyl-6-oxo-5H,6H,7H-pyrrolo[2,3-d]pyrimidin-2-yl}amino)ethyl]-1,2-dihydroquinolin-2-one]",,,,
1000 to 10000 nM,100 to 1000 nM,"C[C@H](Nc1ncc2c(n1)NC(=O)C2)c1cc2cc(Cl)ccc2[nH]c1=O [Compound I-60, 6-chloro-3-[(1S)-1-({6-oxo-5H,6H,7H-pyrrolo[2,3-d]pyrimidin-2-yl}amino)ethyl]-1,2-dihydroquinolin-2-one]",,,,
,,"COc1cc2[nH]c(=O)c([C@H](C)Nc3ncc4c(n3)N(C)C(=O)OC4)cc2cc1Cl [Compound I-51, 6-chloro-7-methoxy-3-[(1S)-1-({1-methyl-2-oxo-1H,2H,4H-pyrimido[4,5-d][1,3]oxazin-7-yl}amino)ethyl]-1,2-dihydroquinolin-2-one]",< 100 nM,< 100 nM,,
< 100 nM,< 100 nM,"C[C@H](Nc1ncc2c(n1)N(C)C(=O)OC2)c1cc2cc(Cl)c(OCc3ccccn3)cc2[nH]c1=O [Compound I-48, 6-chloro-3-[(1S)-1-({1-methyl-2-oxo-1H,2H,4H-pyrimido[4,5-d][1,3]oxazin-7-yl}amino)ethyl]-7-(pyridin-2-ylmethoxy)-1,2-dihydroquinolin-2-one]",,,,
100 to 1000 nM,< 100 nM,"C[C@H](Nc1ncc2c(n1)NC(=O)OC2)c1cc2cc(Cl)ccc2[nH]c1=O [Compound I-49, 6-chloro-3-[(1S)-1-({2-oxo-1H,2H,4H-pyrimido[4,5-d][1,3]oxazin-7-yl}amino)ethyl]-1,2-dihydroquinolin-2-one]",,,,
< 100 nM,< 100 nM,"C[C@H](Nc1ncc2c(n1)N(C)C(=O)OC2)c1cc2cc(Cl)ccc2[nH]c1=O [Compound I-47, 6-chloro-3-[(1S)-1-({1-methyl-2-oxo-1H,2H,4H-pyrimido[4,5-d][1,3]oxazin-7-yl}amino)ethyl]-1,2-dihydroquinolin-2-one]",,,,
